What follows are compounds tested against T1, DLK (Homo sapiens, UniProt Q12852) (assay: not given). Details: read-out: DLK (Ki) μM; TR-FRET; 5 nM GST-tagged DLK (catalytic domain aa 1-520), 40 nM HIS-MKK4 K131M substrate, 30 μM ATP, 60 minutes.
T1 sequence (Q12852 1-520): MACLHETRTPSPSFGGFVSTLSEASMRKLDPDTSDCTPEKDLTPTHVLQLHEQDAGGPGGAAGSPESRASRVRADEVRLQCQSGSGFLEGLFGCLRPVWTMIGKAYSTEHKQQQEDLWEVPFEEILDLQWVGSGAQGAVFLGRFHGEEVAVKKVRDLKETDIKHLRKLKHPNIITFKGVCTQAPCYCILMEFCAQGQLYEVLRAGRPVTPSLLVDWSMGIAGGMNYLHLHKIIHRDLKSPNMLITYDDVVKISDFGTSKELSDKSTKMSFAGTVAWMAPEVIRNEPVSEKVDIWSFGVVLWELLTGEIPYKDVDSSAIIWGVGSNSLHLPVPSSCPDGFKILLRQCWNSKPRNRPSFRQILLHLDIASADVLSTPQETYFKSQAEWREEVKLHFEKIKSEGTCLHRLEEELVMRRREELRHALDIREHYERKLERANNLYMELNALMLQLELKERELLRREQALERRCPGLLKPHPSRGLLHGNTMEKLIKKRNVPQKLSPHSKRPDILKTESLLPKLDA

For `Nc1ncc(-c2cc([C@H]3[C@@H]4CN(C5COC5)C[C@@H]43)n(C3CCC3)n2)cc1OC(F)(F)F` [Compound 163, 5-(1-cyclobutyl-5-((1R,5S,6r)-3-(oxe-tan-3-yl)-3-azabicyclo[3.1.0]hexan-6-yl)-1H-pyrazol-3-yl)-3-(trifluorometh-oxy)pyridin-2-amine], which Ki is on record?
Its Ki is 0.013 µM.

With `Nc1ncc(-c2cc([C@H]3[C@@H]4CN(C5COC5)C[C@@H]43)n(CC3CCC3)n2)cc1OC(F)F` [Compound 164, 5-(1-(cyclobutylmethyl)-5-((1R,5S,6r)-3-(oxetan-3-yl)-3-azabicyclo[3.1.0]hexan-6-yl)-1H-pyrazol-3-yl)-3-(di-fluoromethoxy)pyridin-2-amine] as the compound, how does the Ki read?
Its Ki is 0.013 µM.

With `CC(C)n1nc(-c2cnc(N)c(OC(F)(F)F)c2)cc1[C@H]1[C@@H]2CN(C3COC3)C[C@@H]21` [Compound 165, 5-(1-isopropyl-5-((1R,5S,6r)-3-(oxe-tan-3-yl)-3-azabicyclo[3.1.0]hexan-6-yl)-1H-pyrazol-3-yl)-3-(trifluorometh-oxy)pyridin-2-amine] as the compound, how does the Ki read?
Its Ki is 0.0019 µM.

For `Nc1ncc(-c2cc([C@H]3[C@@H]4CN(C5COC5)C[C@@H]43)n(C3CCCC3)n2)cc1OC(F)(F)F` [Compound 166, 5-(1-cyclopentyl-5-((1R,5S,6r)-3-(oxe-tan-3-yl)-3-azabicyclo[3.1.0]hexan-6-yl)-1H-pyrazol-3-yl)-3-(trifluoro-methoxy)pyridin-2-amine], which Ki is on record?
The Ki was 0.0047 µM.

How did the Ki turn out when `CC(C)(C)n1nc(-c2cnc(N)c(C(F)(F)F)c2)cc1[C@H]1[C@@H]2CN(C3COC3)C[C@@H]21` [Compound 167, 5-(1-(tert-butyl)-5-((1R,5S,6r)-3-(oxe-tan-3-yl)-3-azabicyclo[3.1.0]hexan-6-yl)-1H-pyrazol-3-yl)-3-(trifluorometh-yl)pyridin-2-amine] was run?
The Ki was 0.027 µM.

How did the Ki turn out when `Nc1ncc(-c2cc([C@H]3[C@@H]4CN(C5COC5)C[C@@H]43)n(C3CC3)n2)cc1C(F)(F)F` [Compound 168, 5-(1-cyclopropyl-5-((1R,5S,6r)-3-(oxe-tan-3-yl)-3-azabicyclo[3.1.0]hexan-6-yl)-1H-pyrazol-3-yl)-3-(trifluoro-methyl)pyridin-2-amine] was run?
The Ki was 0.0047 µM.

How did the Ki turn out when `Nc1ncc(-c2cc([C@H]3[C@@H]4CN(C5COC5)C[C@@H]43)n(CC3CC3)n2)cc1C(F)F` [Compound 169, 5-(1-(cyclopropylmethyl)-5-((1R,5S,6r)-3-(oxetan-3-yl)-3-azabicyclo[3.1.0]hexan-6-yl)-1H-pyrazol-3-yl)-3-(di-fluoromethyl)pyridin-2-amine] was run?
Its Ki is 0.041 µM.

Which Ki does the source give for `Nc1ncc(-c2cc([C@H]3[C@@H]4CN(C5COC5)C[C@@H]43)n(C3CC3)n2)cc1C(F)F` [Compound 170, 5-(1-cyclopropyl-5-((1R,5S,6r)-3-(oxe-tan-3-yl)-3-azabicyclo[3.1.0]hexan-6-yl)-1H-pyrazol-3-yl)-3-(difluoro-methyl)pyridin-2-amine] here?
Its Ki is 0.012 µM.

With `Nc1ncc(-c2cc([C@H]3[C@@H]4CN(C5COC5)C[C@@H]43)n(C3CCCC3)n2)cc1C(F)F` [Compound 171, 5-(1-cyclopentyl-5-((1R,5S,6r)-3-(oxe-tan-3-yl)-3-azabicyclo[3.1.0]hexan-6-yl)-1H-pyrazol-3-yl)-3-(difluoro-methyl)pyridin-2-amine] as the compound, how does the Ki read?
The Ki was 0.016 µM.

With `Nc1ncc(-c2cc([C@H]3[C@@H]4CN(C5COC5)C[C@@H]43)n(CC3CC3)n2)cc1OC(F)F` [Compound 173, 5-(1-(cyclopropylmethyl)-5-((1R,5S,6r)-3-(oxetan-3-yl)-3-azabicyclo[3.1.0]hexan-6-yl)-1H-pyrazol-3-yl)-3-(difluoromethoxy)pyridin-2-amine] as the compound, how does the Ki read?
The Ki was 0.0039 µM.

How did the Ki turn out when `Nc1ncc(-c2cc([C@H]3[C@@H]4CN(C5COC5)C[C@@H]43)n(CC(F)(F)F)n2)cc1C(F)(F)F` [Compound 174, 5-(5-((1R,5S,6r)-3-(oxetan-3-yl)-3-azabicyclo[3.1.0]hexan-6-yl)-1-(2,2,2-trifluoroethyl)-1H-pyrazol-3-yl)-3-(trifluoromethyl)pyridin-2-amine] was run?
Its Ki is 0.0016 µM.

Which Ki does the source give for `CC(C)n1nc(-c2cnc(N)c(C(C)(F)F)c2)cc1[C@H]1[C@@H]2CN(C3COC3)C[C@@H]21` [Compound 175, 3-(1,1-difluoroethyl)-5-(1-isopropyl-5-((1R,5S,6r)-3-(oxetan-3-yl)-3-aza-bicyclo[3.1.0]hexan-6-yl)-1H-pyrazol-3-yl)pyridin-2-amine] here?
Its Ki is 0.0092 µM.

Which Ki does the source give for `CC1(Cn2nc(-c3cnc(N)c(C(F)(F)F)c3)cc2[C@H]2[C@@H]3CN(C4COC4)C[C@@H]32)CC1` [Compound 177, 5-(1-((1-methylcyclopropyl)methyl)-5-((1R,5S,6r)-3-(oxetan-3-yl)-3-aza-bicyclo[3.1.0]hexan-6-yl)-1H-pyrazol-3-yl)-3-(trifluoromethyl)pyridin-2-amine] here?
Its Ki is 0.00067 µM.

These compounds were tested against T1, DLK (assay: biochemical). Details: not given.

Which Ki does the source give for `Cc1c[nH]c2ncc(-c3cc(C4CCOC4)n(CC4CC4)n3)cc12` (racemic) [Compound 13, 5-(1-(cyclopropylmethyl)-5-(tetrahydrofuran-3-yl)-1H-pyrazol-3-yl)-3-methyl-1H-pyrrolo[2,3-b]pyridine] here?
The Ki was 29 nM.

For `CC(C)n1nc(-c2cnc(N)c(C(F)F)c2)cc1C(C)(C)C#N` [Compound 5, 2-(3-(6-amino-5-(difluoromethyl)pyridin-3-yl)-1-isopropyl-1H-pyrazol-5-yl)-2-methylpropanenitrile], which Ki is on record?
The Ki was greater than 1000 nM.

How did the Ki turn out when `Nc1ncc(-c2cc(C3CCOCC3)n(C3CC(F)(F)C3)n2)cc1F` [Compound 37, 5-(1-(3,3-difluorocyclobutyl)-5-(tetra-hydro-2H-pyran-4-yl)-1H-pyrazol-3-yl)-3-fluoropyridin-2-amine] was run?
The Ki was greater than 1000 nM.

For `CC(C)n1nc(-c2cnc3c(c2)C(C)(C)C(=O)N3)cc1C1CN(C2COC2)C1` [Compound 61, 5-(1-isopropyl-5-(1-(oxetan-3-yl)aze-tidin-3-yl)-1H-pyrazol-3-yl)-3,3-dimeth-yl-1H-pyrrolo[2,3-b]pyridin-2(3H)-one], which Ki is on record?
The Ki was greater than 1000 nM.

How did the Ki turn out when `CC(C)n1nc(-c2cnc3[nH]cnc3c2)cc1C1CN(C2COC2)C1` [Compound 62, 6-(1-isopropyl-5-(1-(oxetan-3-yl)aze-tidin-3-yl)-1H-pyrazol-3-yl)-3H-imi-dazo[4,5-b]pyridine] was run?
Its Ki is greater than 1000 nM.

With `CC(C)n1nc(-c2cnc3c(c2)CC(=O)N3)cc1C1CCN(C2COC2)CC1` [Compound 73, 5-(1-isopropyl-5-(1-(oxetan-3-yl)pipe-ridin-4-yl)-1H-pyrazol-3-yl)-1H-pyrro-lo[2,3-b]pyridin-2(3H)-one] as the compound, how does the Ki read?
Its Ki is greater than 1000 nM.

For `CC(C)n1nc(-c2cnc3[nH]cnc3c2)cc1C1CCN(C2COC2)CC1` [Compound 79, 6-(1-isopropyl-5-(1-(oxetan-3-yl)pipe-ridin-4-yl)-1H-pyrazol-3-yl)-3H-imi-dazo[4,5-b]pyridine], which Ki is on record?
The Ki was greater than 1000 nM.

Which Ki does the source give for `CC(C)n1nc(-c2cnc3c(c2)C(C)(C)C(=O)N3)cc1C1CCN(C2COC2)CC1` [Compound 80, 5-(1-isopropyl-5-(1-(oxetan-3-yl)pipe-ridin-4-yl)-1H-pyrazol-3-yl)-3,3-di-methyl-1H-pyrrolo[2,3-b]pyridin-2 (3H)-one] here?
Its Ki is greater than 1000 nM.

How did the Ki turn out when `Cc1cc(-c2cc(C3CCN(C4COC4)CC3)n(C(C)C)n2)cnc1N` [Compound 82, 5-(1-isopropyl-5-(1-(oxetan-3-yl)pipe-ridin-4-yl)-1H-pyrazol-3-yl)-3-meth-ylpyridin-2-amine] was run?
Its Ki is greater than 1000 nM.

With `CC(C)n1nc(-c2cnc3c(c2)OCCN3)cc1C1CCN(C2COC2)CC1` [Compound 94, 7-(1-isopropyl-5-(1-(oxetan-3-yl)pipe-ridin-4-yl)-1H-pyrazol-3-yl)-3,4-di-hydro-2H-pyrido[3,2-b][1,4]oxazine] as the compound, how does the Ki read?
The Ki was greater than 1000 nM.

With `CC(C)n1nc(-c2cnc3c(c2)CCCN3)cc1C1CCN(C2COC2)CC1` [Compound 96, 6-(1-isopropyl-5-(1-(oxetan-3-yl)pipe-ridin-4-yl)-1H-pyrazol-3-yl)-1,2,3,4-tetahydro-1,8-naphthyridine] as the compound, how does the Ki read?
Its Ki is greater than 1000 nM.

For `COC1(c2cc(-c3cnc(N)c(C(F)(F)F)c3)nn2C(C)C)CCN(C2COC2)CC1` [Compound 103, 5-(1-isopropyl-5-(4-methoxy-1-(oxetan-3-yl)piperidin-4-yl)-1H-pyrazol-3-yl)-3-(trifluoromethyl)pyridin-2-amine], which Ki is on record?
Its Ki is greater than 1000 nM.

Which Ki does the source give for `CC1(Cn2nc(-c3cnc(N)c(Cl)c3)cc2[C@H]2[C@@H]3CN(CC(F)(F)F)C[C@@H]32)COC1` [Compound 112, 3-chloro-5-(1-((3-methyloxetan-3-yl)methyl)-5-((1R,5S,6r)-3-(2,2,2-trifluoro-ethyl)-3-azabicyclo[3.1.0]hexan-6-yl)-1H-pyrazol-3-yl)pyridin-2-amine] here?
The Ki was greater than 1000 nM.

Source: patent publication US10028942B2 (priority 2013, dated 2018)
